Data published in the supplement of paper PMC10307832.

Columns and labels:
Test in all cases: relative viability (nuclei count vs DMSO), 5 days (fraction); higher = more cells survive
AZD1208 + Vorinostat = compound: N[C@@H]1CCCN(c2c(/C=C3\SC(=O)NC3=O)cccc2-c2ccccc2)C1 [AZD1208] + O=C(CCCCCCC(=O)Nc1ccccc1)NO [Vorinostat] (partner 1 µM)
How it was run: (§1)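 One day after seeding in 1536-well plates, lung cancer cell lines were dosed by pin tool. Dosing was either single-drug or a fixed anchor-drug dose plus five library-drug doses (not always all listed) in √10 steps. After 5 days, nuclei were stained in one fix-and-stain step and counted on 4× images, and relative viability is the nuclei count of treated wells over that of vehicle wells, given as the median of duplicate plates.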

XMD14-99 + Trametinib = compound: CN1CCN(CC1)C2=CC(=C(C=C2)NC3=NC(=C(S3)C(=O)C4=C(C=CC=C4Cl)Cl)N)OC [XMD14-99] + CC(=O)Nc1cccc(-n2c(=O)n(C3CC3)c(=O)c3c(Nc4ccc(I)cc4F)n(C)c(=O)c(C)c32)c1 [Trametinib] (partner 0.02 µM)
How it was run: as §1

XMD14-99 + Phenformin = compound: CN1CCN(CC1)C2=CC(=C(C=C2)NC3=NC(=C(S3)C(=O)C4=C(C=CC=C4Cl)Cl)N)OC [XMD14-99] + N=C(N)NC(=N)NCCc1ccccc1 [Phenformin] (partner 250 µM)
How it was run: as §1

AZD1208 + Bortezomib = compound: N[C@@H]1CCCN(c2c(/C=C3\SC(=O)NC3=O)cccc2-c2ccccc2)C1 [AZD1208] + CC(C)C[C@H](NC(=O)[C@H](Cc1ccccc1)NC(=O)c1cnccn1)B(O)O [Bortezomib] (partner 0.002 µM)
How it was run: as §1

Cell Line | relative viability (AZD1208 + Vorinostat; first compound 0.08 µM) | relative viability (AZD1208 + Vorinostat; first compound 0.253 µM) | relative viability (AZD1208 + Vorinostat; first compound 0.8 µM) | relative viability (AZD1208 + Vorinostat; first compound 2.53 µM) | relative viability (AZD1208 + Vorinostat; first compound 8 µM) | relative viability (XMD14-99 + Trametinib; first compound 0.08 µM) | relative viability (XMD14-99 + Trametinib; first compound 0.8 µM) | relative viability (XMD14-99 + Trametinib; first compound 2.53 µM) | relative viability (XMD14-99 + Trametinib; first compound 8 µM) | relative viability (XMD14-99 + Phenformin; first compound 0.08 µM) | relative viability (XMD14-99 + Phenformin; first compound 0.8 µM) | relative viability (XMD14-99 + Phenformin; first compound 2.53 µM) | relative viability (XMD14-99 + Phenformin; first compound 8 µM) | relative viability (AZD1208 + Bortezomib; first compound 0.08 µM) | relative viability (AZD1208 + Bortezomib; first compound 0.253 µM) | relative viability (AZD1208 + Bortezomib; first compound 0.8 µM) | relative viability (AZD1208 + Bortezomib; first compound 2.53 µM) | relative viability (AZD1208 + Bortezomib; first compound 8 µM)
NCI-H1755 | 0.79 | 0.893 | 0.604 | 0.685 | 0.555 | 0.794 | 0.777 | 0.752 | 0.559 | 0.587 | 0.57 | 0.578 | 0.523 | 0.97 | 1.06 | 0.96 | 1.02 | 0.904
NCI-H1915 | 0.545 | 0.512 | 0.525 | 0.464 | 0.434 | 0.301 | 0.311 | 0.25 | 0.224 | 0.369 | 0.385 | 0.36 | 0.335 | 0.976 | 1.07 | 0.956 | 0.94 | 1.06
NCI-H1975 | 0.708 | 0.799 | 0.705 | 0.735 | 0.767 | 0.263 | 0.416 | 0.32 | 0.308 | 0.379 | 0.41 | 0.325 | 0.317 | 0.415 | 0.404 | 0.304 | 0.353 | 0.357
NCI-H1993 | 0.584 | 0.63 | 0.726 | 0.548 | 0.501 | 0.593 | 0.522 | 0.614 | 0.54 | 0.467 | 0.506 | 0.447 | 0.436 | – | 1.04 | 0.925 | 0.998 | 0.888
NCI-H2009 | 0.747 | 0.777 | 0.698 | 0.788 | 0.67 | 0.258 | 0.317 | 0.254 | 0.185 | 0.482 | 0.442 | 0.331 | 0.251 | 1.01 | 1.09 | 0.968 | 0.832 | 1.02
NCI-H2023 | 0.627 | 0.769 | 0.517 | 0.689 | 0.571 | 0.495 | 0.562 | 0.754 | 0.442 | 0.378 | 0.422 | 0.338 | 0.245 | 0.888 | 1.02 | 0.983 | 0.695 | 0.849
NCI-H2085 | 0.796 | 0.821 | 0.749 | 0.82 | 0.751 | 0.49 | 0.621 | 0.498 | 0.485 | 0.668 | 0.68 | 0.681 | 0.572 | 1.07 | 1.2 | 0.938 | 1.14 | 1.05
NCI-H2087 | 0.789 | 0.795 | 0.752 | 0.73 | 0.406 | 0.174 | 0.176 | 0.162 | 0.122 | 0.445 | 0.408 | 0.346 | 0.2 | 0.827 | 1.01 | 0.846 | 0.941 | 0.909
NCI-H2126 | 0.745 | 0.669 | 0.676 | 0.535 | 0.563 | 0.545 | 0.569 | 0.621 | 0.56 | 0.526 | 0.51 | 0.45 | 0.421 | 1.1 | 1.14 | 1.09 | 1.07 | 1.1
NCI-H2228 | 0.647 | 0.624 | 0.793 | 0.448 | 0.464 | 0.612 | 0.534 | 0.431 | 0.209 | 0.382 | 0.344 | 0.168 | 0.152 | 1.15 | 1.15 | 0.865 | – | 0.704
NCI-H2347 | 0.531 | 0.767 | 0.533 | 0.599 | 0.803 | 0.278 | 0.288 | 0.304 | 0.269 | 0.529 | 0.422 | 0.406 | 0.251 | 0.933 | 0.734 | 0.822 | 0.791 | 1.08
NCI-H2405 | 1.13 | 1.04 | 0.965 | 1.01 | 0.932 | 0.641 | 0.751 | 0.626 | 0.575 | 0.379 | 0.39 | 0.373 | 0.231 | 0.986 | 1.01 | 0.936 | 1.01 | 0.989
NCI-H3122 | 0.97 | 0.943 | 0.924 | 1.05 | 0.524 | 0.261 | 0.22 | 0.269 | 0.22 | 0.372 | 0.361 | 0.291 | 0.237 | 1.02 | 1.04 | 1.04 | 1.06 | 1.06
PC-3 [JPC-3] | 1.13 | 0.746 | 0.857 | 0.909 | 0.926 | 0.749 | 0.59 | 0.645 | 0.577 | 0.494 | 0.505 | 0.517 | 0.47 | 0.833 | 0.972 | 0.887 | 0.927 | 0.855
PC-14 | 0.674 | 0.78 | 0.719 | 0.687 | 0.604 | 0.668 | 0.726 | 0.59 | 0.217 | 0.639 | 0.644 | 0.517 | 0.308 | 0.963 | 0.954 | 0.848 | 1.01 | 0.907
RERF-LC-KJ | 0.646 | 0.668 | 0.7 | 0.658 | 0.598 | 0.808 | 0.846 | 0.76 | 0.682 | 0.425 | 0.45 | 0.375 | 0.388 | 1.1 | 1.21 | 1.06 | 1 | 0.818
SK-LU-1 | 0.776 | 0.785 | 0.73 | 0.783 | 0.736 | 0.538 | 0.502 | 0.473 | 0.309 | 0.523 | 0.563 | 0.456 | 0.322 | 1.36 | 1.24 | 1.09 | 0.996 | 0.812
SW 1573 | 0.505 | 0.862 | 0.456 | 0.479 | 0.404 | 0.547 | 0.58 | 0.74 | 0.47 | 0.357 | 0.386 | 0.413 | 0.363 | 0.963 | 1.14 | 0.935 | 0.907 | 0.717
